Values of other authors in patent US20070054964A1 (Wyeth, priority 2005, published 2007).

Columns and labels:
[1] = test system: neuronal norepinephrine re-uptake
[2] = compared with ODV free base
[3] = compared with ODV free base; remark: listed apart in the source
[4] = oral administration, vs venlafaxine, ODV or other salts of ODV
[5] = biological target: H1-histaminergic receptors (Homo sapiens, UniProt P35367)
[6] = test system: neuronal serotonin re-uptake
[7] = in vitro studies, Muth et al. 1991

Sequence of H1-histaminergic receptors (P35367 whole entry): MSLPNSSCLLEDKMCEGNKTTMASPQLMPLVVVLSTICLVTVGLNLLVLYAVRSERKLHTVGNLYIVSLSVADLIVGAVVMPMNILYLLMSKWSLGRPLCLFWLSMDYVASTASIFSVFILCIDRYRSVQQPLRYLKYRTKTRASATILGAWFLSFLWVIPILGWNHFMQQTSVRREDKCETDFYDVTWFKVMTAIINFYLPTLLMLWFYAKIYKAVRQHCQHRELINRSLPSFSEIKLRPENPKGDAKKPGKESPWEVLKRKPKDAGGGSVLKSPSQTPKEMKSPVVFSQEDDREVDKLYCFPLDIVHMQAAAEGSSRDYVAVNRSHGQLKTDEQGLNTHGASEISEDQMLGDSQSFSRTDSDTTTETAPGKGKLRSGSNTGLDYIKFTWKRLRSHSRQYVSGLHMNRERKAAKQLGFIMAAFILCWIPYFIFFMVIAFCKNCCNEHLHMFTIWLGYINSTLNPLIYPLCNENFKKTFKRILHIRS

SMILES	inhibition of neuronal norepinephrine re-uptake [1]	inhibition of dopamine re-uptake (dopamine re-uptake)	affinity for α1-adrenergic receptors (α1-adrenergic receptors)	permeability [2]	bioavailability [3]	incidence of nausea, vomiting, diarrhea, abdominal pain, headache, vaso-vagal malaise, and/or trismus [4]	potency of norepinephrine re-uptake inhibition compared with venlafaxine [1, 7]	affinity for H1-histaminergic receptors [5]	solubility compared with venlafaxine	inhibition of neuronal serotonin re-uptake [6]	potency of serotonin re-uptake inhibition compared with venlafaxine [6, 7]	affinity for muscarinic receptors (muscarinic receptors)
COc1ccc(C(CN(C)C)C2(O)CCCCC2)cc1 (racemic) [Venlafaxine, (±)-1-[2-(dimethylamino)-1-(4-methoxyphenyl)ethyl]-cyclohexanol]	potent inhibitors	weak inhibitors	no significant affinity	–	–	–	–	–	–	–	–	–
CN(C)CC(c1ccc(O)cc1)C1(O)CCCCC1.O=C(O)CCC(=O)O (stereo not drawn) [ODV succinate]	–	–	–	improved	improved	lower incidence	–	–	–	–	–	–
CN(C)CC(c1ccc(O)cc1)C1(O)CCCCC1 (stereo not drawn) [ODV, 1-[2-(dimethyl-amino)-1-(4-phenyl)ethyl]-cyclohexanol]	potent inhibitors	weak inhibitors	no significant affinity	–	–	–	more potent inhibitor	no significant affinity	more soluble	potent inhibitors	more potent inhibitor	no significant affinity
